Measured values published in patent US20240101573A1, “MACROCYCLIC K-RAS G12C INHIBITOR, PREPARATION METHOD THEREFOR AND USE THEREOF” (Abbisko Therapeutics Co., Ltd., priority 2020, published 2024).

Legend:
H358 = experiment: Anti-proliferation 2D CTG test (H358); assay type: cell-based; conditions: H358 cells, 1500 cells/well, 5 days incubation with compound, CTG readout
Summary of the method: (§1)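 H358 (1500 cells/well) and MIA PaCa-2 (500 cells/well) seeded overnight, then treated 5 days at 37 °C with 10-point 1:3 dilutions, top final […], 0.5% DMSO. Viability by CellTiter-Glo luminescence; IC50 from four-parameter fit normalized to plate controls.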

MIA PaCa-2 = experiment: Anti-proliferation 2D CTG test (MIA PaCa-2); assay type: cell-based; conditions: MIAPACA-2 cells, 500 cells/well, 5 days incubation with compound, CTG readout
Summary of the method: as §1

[1] = Homo sapiens, MIA PaCa-2, 120 h

Compound	IC50 (H358; Homo sapiens, NCI-H358, 120 h)	IC50 (MIA PaCa-2; [1])	IC50 (H358)	IC50 (MIA PaCa-2)
C=CC(=O)N1C[C@H](C)N(c2nc(=O)n3c4nc(c(F)cc24)-c2c(ccc(Cl)c2F)OCC(O)C(OCC)c2ccnc(C(C)C)c2-3)C[C@H]1C (stereo partly drawn) [Example 76, (R)-2^4-((2S,5R)-4-acryloyl-2,5-dimethylpiperazin-1-yl)-3^5-chloro-7-ethoxy-2^6,3^6-difluoro-6-hydroxy-1^2-isopropyl-2^1,2^2-dihydro-4-oxa-2(1,7)-pyrido[2,3-d]pyrimidina-1(3,4)-pyridina-3(1,2)-benzocycloheptane-2^2-one]			4 nM	4 nM
C=CC(=O)N1CCN(c2nc(=O)n3c4nc(c(F)cc24)-c2c(F)cccc2OCC(OC(C)=O)C(OC(C)=O)c2ccnc(C(C)C)c2-3)[C@@H](C)C1 (stereo partly drawn) [Example 18-R, (R)-2^4-((S)-4-acryloyl-2-methylpiperazin-1-yl)-2^6,3^6-difluoro-1^2-isopropyl-2^2-oxo-2^1,2^2-dihydro-4-oxa-2(1,7)-pyrido[2,3-d]pyrimidina-1(3,4)-pyridina-3(1,2)-benzocycloheptane-6,7-diyl diacetate]			16 nM	15 nM
C=CC(=O)N1CCN(c2nc(=O)n3c4nc(c(F)cc24)-c2c(F)cccc2OCC(O)C(OC(=O)C2CC2)c2ccnc(C(C)C)c2-3)[C@@H](C)C1 (stereo partly drawn) [Example 10, 2^4-((S)-4-acryloyl-2-methylpiperazin-1-yl)-2^6,3^6-difluoro-6-hydroxy-1^2-isopropyl-2^2-oxo-2^1,2^2-dihydro-4-oxa-2(1,7)-pyrido[2,3-d]pyrimidina-1(3,4)-pyridina-3(1,2)-benzocycloheptane-7-yl cyclopropanecarboxylate]	5 nM	4 nM		
C=CC(=O)N1CCN(c2nc(=O)n3c4nc(c(F)cc24)-c2c(F)cccc2OCC(O)C(OC(C)=O)c2ccnc(C(C)C)c2-3)[C@@H](C)C1 (stereo partly drawn) [Example 7, 2^4-((S)-4-acryloyl-2-methylpiperazin-1-yl)-2^6,3^6-difluoro-6-hydroxy-1^2-isopropyl-2^2-oxo-2^1,2^2-dihydro-4-oxa-2(1,7)-pyrido[2,3-d]pyrimidina-1(3,4)-pyridina-3(1,2)-benzocycloheptane-7-yl acetate]	15 nM	10 nM		
C=CC(=O)N1CCN(c2nc(=O)n3c4nc(c(F)cc24)-c2c(F)cccc2OCC(OC)C(O)c2ccnc(C(C)C)c2-3)[C@@H](C)C1 (stereo partly drawn) [Example 27, 24-((S)-4-acryloyl-2-methylpiperazin-1-yl)-6-methoxy-2^6,3^6-difluoro-7-hydroxy-1^2-isopropyl-2^1,2^2-dihydro-4-oxa-2(1,7)-pyrido[2,3-d]pyrimidina-1(3,4)-pyridina-3(1,2)-benzocycloheptane-2^2-one]	9 nM	4 nM		
C=CC(=O)N1CCN(c2nc(=O)n3c4nc(c(F)cc24)-c2c(F)cccc2OCC(OCC)C(=O)c2ccnc(C(C)C)c2-3)[C@@H](C)C1 (stereo partly drawn) [Example 21, (R)-2^4-((S)-4-acryloyl-2-methylpiperazin-1-yl)-6-ethoxy-2^6,3^6-difluoro-1^2-isopropyl-2^1,2^2-dihydro-4-oxa-2(1,7)-pyrido[2,3-d]pyrimidina-1(3,4)-pyridina-3(1,2)-benzocycloheptane-22,7-dione]	60 nM	153 nM		
2^4-((S)-4-acryloyl-2-methylpiperazin-1-yl)-2^6,3^6-difluoro-7-hydroxy-1^2-isopropyl-2^1,2^2-dihydro-4-oxa-2(1,7)-pyrido[2,3-d]pyrimidina-1(3,4)-pyridina-3(1,2)-benzocycloheptane-2^2-one [Example 5]			19 nM	20 nM
C=CC(=O)N1CCN(c2nc(=O)n3c4nc(c(F)cc24)-c2c(F)cccc2OCC(O)C(OC(=O)C(C)C)c2ccnc(C(C)C)c2-3)[C@@H](C)C1 (stereo partly drawn) [Example 9, 2^4-((S)-4-acryloyl-2-methylpiperazin-1-yl)-2^6,3^6-difluoro-6-hydroxy-1^2-isopropyl-2^2-oxo-2^1,2^2-dihydro-4-oxa-2(1,7)-pyrido[2,3-d]pyrimidina-1(3,4)-pyridina-3(1,2)-benzocycloheptane-7-yl isobutyrate]	21 nM	13 nM		

Second part, the compound after the results:

IC50 (H358; Homo sapiens, NCI-H358, 120 h)	IC50 (MIA PaCa-2; [1])	IC50 (H358)	IC50 (MIA PaCa-2)	Compound
14 nM	7 nM			C=CC(=O)N1CCN(c2nc(=O)n3c4nc(c(F)cc24)-c2c(F)cccc2OCC(=O)C(OCC)c2ccnc(C(C)C)c2-3)[C@@H](C)C1 (some centres unmarked) [Example 22]
		6 nM	6 nM	C=CC(=O)N1CCN(c2nc(=O)n3c4nc(c(F)cc24)-c2c(F)cccc2OCC(OCC)C(O)c2ccnc(C(C)C)c2-3)[C@@H](C)C1 (stereo partly drawn) [Example 29, 2^4-((S)-4-acryloyl-2-methylpiperazin-1-yl)-6-ethoxy-2^6,3^6-difluoro-7-hydroxy-1^2-isopropyl-2^1,2^2-dihydro-4-oxa-2(1,7)-pyrido[2,3-d]pyrimidina-1(3,4)-pyridina-3(1,2)-benzocycloheptane-2^2-one]
17 nM	8 nM			C=CC(=O)N1CCN(c2nc(=O)n3c4nc(c(F)cc24)-c2c(F)cccc2OCC(O)C(OCCF)c2ccnc(C(C)C)c2-3)[C@@H](C)C1 (stereo partly drawn) [Example 24, 2^4-((S)-4-acryloyl-2-methylpiperazin-1-yl)-2^6,3^6-difluoro-7-(2-fluoroethoxy)-6-hydroxy-1^2-isopropyl-2^1,2^2-dihydro-4-oxa-2(1,7)-pyrido[2,3-d]pyrimidina-1(3,4)-pyridina-3(1,2)-benzocycloheptane-2^2-one]
9 nM	5 nM			C=CC(=O)N1CCN(c2nc(=O)n3c4nc(c(F)cc24)-c2c(F)cccc2OCC(O)C(OCC2CC2)c2ccnc(C(C)C)c2-3)[C@@H](C)C1 (stereo partly drawn) [Example 47, (R)-2^4-((S)-4-acryloyl-2-methylpiperazin-1-yl)-7-(cyclopropylmethoxy)-2^6,3^6-difluoro-6-hydroxy-1^2-isopropyl-2^1,2^2-dihydro-4-oxa-2(1,7)-pyrido[2,3-d]pyrimidina-1(3,4)-pyridina-3(1,2)-benzocycloheptane-2^2-one]
		7 nM	6 nM	C=CC(=O)N1CCN(c2nc(=O)n3c4nc(c(F)cc24)-c2c(ccc(Cl)c2F)OCC(O)C(OCC)c2ccnc(C(C)C)c2-3)[C@@H](C)C1 (stereo partly drawn) [Example 72, (R)-2^4-((S)-4-acryloyl-2-methylpiperazin-1-yl)-3^5-chloro-7-ethoxy-2^6,3^6-difluoro-6-hydroxy-1^2-isopropyl-2^1,2^2-dihydro-4-oxa-2(1,7)-pyrido[2,3-d]pyrimidina-1(3,4)-pyridina-3(1,2)-benzocycloheptane-2^2-one]
		27 nM	22 nM	C=CC(=O)N1CCN(c2nc(=O)n3c4nc(c(F)cc24)-c2c(ccc(Cl)c2F)OCC(O)C(OCC)c2ccnc(C(C)C)c2-3)[C@@H](C)C1 (stereo partly drawn) [Example 68, 2^4-((S)-4-acryloyl-2-methylpiperazin-1-yl)-3^5-chloro-7-ethoxy-2^6,3^6-difluoro-6-hydroxy-1^2-isopropyl-2^1,2^2-dihydro-4-oxa-2(1,7)-pyrido[2,3-d]pyrimidina-1(3,4)-pyridina-3(1,2)-benzocycloheptane-2^2-one]
23 nM	9 nM			C=CC(=O)N1CCN(c2nc(=O)n3c4nc(c(F)cc24)-c2c(F)cccc2OCC(OC)C(OC)c2ccnc(C(C)C)c2-3)[C@@H](C)C1 (stereo partly drawn) [Example 59, 2^4-((S)-4-acryloyl-2-methylpiperazin-1-yl)-2^6,3^6-difluoro-1^2-isopropyl-6,7-dimethoxy-2^1,2^2-dihydro-4-oxa-2(1,7)-pyrido[2,3-d]pyrimidina-1(3,4)-pyridina-3(1,2)-benzocycloheptane-2^2-one]
		2 nM	1 nM	C=CC(=O)N1CCN(c2nc(=O)n3c4nc(c(F)cc24)-c2c(F)cccc2OCC(O)C(OC)c2ccnc(C(C)C)c2-3)[C@@H](C)C1 (stereo partly drawn) [Example 26, 2^4-((S)-4-acryloyl-2-methylpiperazin-1-yl)-7-methoxy-2^6,3^6-difluoro-6-hydroxy-1^2-isopropyl-2^1,2^2-dihydro-4-oxa-2(1,7)-pyrido[2,3-d]pyrimidina-1(3,4)-pyridina-3(1,2)-benzocycloheptane-2^2-one]
		28 nM	27 nM	C=CC(=O)N1CCN(c2nc(=O)n3c4nc(c(F)cc24)-c2c(F)cccc2OCC(O)C(OCC)c2ccnc(C(C)C)c2-3)[C@@H](C)C1 (stereo partly drawn) [Example 28, 2^4-((S)-4-acryloyl-2-methylpiperazin-1-yl)-7-ethoxy-2^6,3^6-difluoro-6-hydroxy-1^2-isopropyl-2^1,2^2-dihydro-4-oxa-2(1,7)-pyrido[2,3-d]pyrimidina-1(3,4)-pyridina-3(1,2)-benzocycloheptane-2^2-one]
26 nM	26 nM			C=CC(=O)N1CCN(c2nc(=O)n3c4nc(c(F)cc24)-c2c(F)cccc2OCC(OC(=O)CC)C(OC(=O)CC)c2ccnc(C(C)C)c2-3)[C@@H](C)C1 (stereo partly drawn) [Example 12, 2^4-((S)-4-acryloyl-2-methylpiperazin-1-yl)-2^6,3^6-difluoro-1^2-isopropyl-2^2-oxo-2^1,2^2-dihydro-4-oxa-2(1,7)-pyrido[2,3-d]pyrimidina-1(3,4)-pyridina-3(1,2)-benzocycloheptane-6,7-diyl dipropionate]
9 nM	3 nM			C=CC(=O)N1C[C@H](C)N(c2nc(=O)n3c4nc(c(F)cc24)-c2c(F)cccc2OCC(O)C(OC(C)=O)c2ccnc(C(C)C)c2-3)C[C@H]1C (stereo partly drawn) [Example 8, 2^4-((2S,5R)-4-acryloyl-2,5-dimethylpiperazin-1-yl)-2^6,3^6-difluoro-6-hydroxy-1^2-isopropyl-2^2-oxo-2^1,2^2-dihydro-4-oxa-2(1,7)-pyrido[2,3-d]pyrimidina-1(3,4)-pyridina-3(1,2)-benzocycloheptane-7-yl acetate]
